Measurements published in patent publication US7741436B2, “Biologically active peptides and their use for repairing injured nerves” (priority 2001, dated 2010).

Assays:
[1] = tested on: human embryonic spinal cord neurons; experiment: Survival and neurite outgrowth of human embryonic spinal cord neurons on injured glial cells of the human spinal cord; assay type: cell-based; settings: for survival (numbers) of spinal cord neurons on lesioned glial monolayers / numbers of spinal cord neurons extending long neurites (>100 μm): 72 hrs; for numbers of spinal cord neurons extending long neurites (>100 μm): lesioned glial monolayers
Excerpt: The CNS tissues were first placed in cold saline. The spinal cord tissues were identified under a stereomicroscope, and carefully freed of meninges. To obtain monolayer cultures of human spinal cord glial cells, the cells were dissociated by mechanical trituration using a Pasteur-pipette, and placed in Petri dishes (Corning, N.Y., USA) containing 10% fetal calf serum (Hyclone, Logan, UH) in DMEM-F12 (Gibco, U.K.) supplemented with penicillin and streptomycin as described (Liesi et al. 2001).
Freshly isolated tissue from the human embryonic spinal cord (8-10 weeks of age) was mechanically dissociated and cells were plated at 50,000 on a 22 mm glass coverslip confluent with human embryonic spinal cord glia. The glial monolayers were injured using a 18 G needle prior to plating of the neurons. The cells were cultured in normal adult human serum for 72 hrs. The numbers of spinal cord neurons on the glial monolayers in the presence or absence of KDI (0.0355 μg/ml-1.0 μg/ml) was estimated on TUJ1-labelled cultures. The statistical analysis was performed using one-way-variance analysis (ANOVA), and the Student-Newman-Keuls multiple comparisons test.
Confluent cultures of the spinal cord glial cells were trypsinized using Trypsin-EDTA, and cells replated at a density of 5×10^4 on a 22 mm glass coverslip. The cells were cultivated until they formed confluent monolayers. At this point, their culture medium was changed into 10% normal adult human serum in DMEM-F12, and glial monolayers were injured using 18 G-needle. After injury, the KDI peptide (Multiple Peptide Systems, La Jolla, Calif., USA) was added into the culture medium after which a suspension of freshly dissociated cells from spinal cord or neocortex was added at 2×10^4 on one coverslip. After 24-48 hrs, the cultures were fixed in 2% paraformaldehyde in PBS, pH 7.4 for 15 min and immunostained for TUJ1 as described previously (Liesi et al., 2001).
Viability and neurite outgrowth of human CNS-neurons on the spinal cord glial cells were evaluated by counting 10 random fields of cells in 6 different cultures. A total of 265 cells were counted. The numbers of long neurites (>10 cell soma) were estimated similarly. One-way-variance analysis (ANOVA) was used to evaluate the results.

[2] = tested on: embryonal bodies of human CNS; experiment: Attachment and neurite outgrowth of embryonal bodies on white matter of cryostat sections of adult human spinal cord (myelin influence); assay type: cell-based; settings: 5-10 μg/ml
Description: Embryonal bodies containing immature stem cells from spinal cord, or neocortex were obtained by placing the mechanically dissociated CNS-cells on 10 cm Petri dishes (Corning) in Neurobasal medium (Gibco, U.K.) with B27-supplement (Gibco, U.K.), antibiotics and 500 μM L-glutamine.
Cryostat sections (10 μm) of adult normal human spinal cord were cut in coronal plain on SuperFrost Plus slides (Menzel, Germany). Each slide had three sections. The slides with freshly cut sections were immediately placed in sterile Quadriperm-plates (In Vitro Systems & Services, Germany) and 10 ml of culture medium was added. The culture medium was 1.0% normal adult human serum in DMEM-F12 supplemented with penicillin and streptomycin. Two embryonal bodies were placed on areas of white matter on top of each section, and the cultures were placed in the incubator with 5% CO2/95% air at 98% humidity at +37° C. The KDI peptide (Multiple Peptide Systems, La Jolla, Calif.) was added in the medium at 1-10 μg/ml, and the 10-amino acid precursor (RDIAEIIKDI (SEQ ID NO: 1)) was added at equimolar concentrations. The control cultures received no peptide. After 10 days, the cultures were fixed and immunostained for neurofilament proteins and additional neuronal and glial markers to identify the neurites and cells within the embryonal bodies. Numbers of embryonal bodies attached, and extending neurites directly on the adult white matter tissue were counted on each slide and the results analyzed using one-way-variance-analysis (ANOVA). Numbers of long neurites (>100 μm) extending from embryonal bodies in control cultures and in cultures with 5-10 μg/ml of the KDI peptide in the culture medium were counted and a non-parametric Whitney-Mann test was used to analyze those results.

[3] = tested on: spinal cord injuries of adult male rats; experiment: Spinal cord injuries of adult male rats: complete lumbar spinal cord transection, mini pump administration; assay type: in vivo, Sprague-Dawley rats
Description: Complete transections of the lumbar spinal cord under deep pentobarbiturate anesthesia were made to 40 adult male Sprague-Dawley rats. Osmotic mini pumps were implanted subcutaneously to allow continuous flow of the KDI peptide (KDI-group) used at pre-tested concentrations (10-100 μg/ml) or a placebo (placebo-group). Morphine was given to both of the groups to alleviate the postoperative pain. The animals underwent weekly tests of their motor function during a period of three months. The motor score testing was carried out using a standard set of tests of motor evaluation (walking, tow-spread, placing and withdrawal). The mini pumps initially provided the drugs for 30 days, and when feasible, additional experiments were carried out with prolonged (up to 3 months) application. After 3 months, the animals in each group were euthanized and spinal cords were either deep frozen for immunocytochemistry, biochemistry and RNA-work, or fixed in 4% paraformaldehyde for in situ hybridization and histological analysis of recovery. […]
Preliminary motor scores were obtained from animals treated with KDI, and from control animals. […] The scores for each animal were calculated by adding up the walking scores obtained within a 12 week follow-up-time after the operation. […] The scores of six animals in placebo-group and six-animals, in the KDI-group were analysed and statistically compared. […]

Substance: KDI
- survival (numbers) of spinal cord neurons on lesioned glial monolayers ([1]; 0.0355 μg/ml): significantly (p<0.001) enhanced survival
- neurite extension of TUJ1-immunoreactive spinal cord neuron on injured glial monolayers ([1]; 0.1 μg/ml in culture medium, 48 hrs): extends a long neurite
- survival (numbers) of spinal cord neurons on lesioned glial monolayers ([1]; 0.1 μg/ml): significantly (p<0.001) enhanced survival
- numbers of spinal cord neurons extending long neurites (>100 μm) ([1]; 0.1 μg/ml, p<0.001): significantly increased the numbers of long neurites
- survival (numbers) of spinal cord neurons on lesioned glial monolayers ([1]; 0.5 μg/ml): did not promote survival of the spinal cord neurons any better than the lesion by itself
- survival (numbers) of spinal cord neurons on lesioned glial monolayers ([1]; 1.0 μg/ml): did not promote survival of the spinal cord neurons any better than the lesion by itself
- numbers of spinal cord neurons extending long neurites (>100 μm) ([1]; 1.0 μg/ml, vs lesion-control): significantly increased the numbers of long neurites
- extension of neurofilament-positive neurites from spinal cord embryonal bodies on white matter ([2]; 10 days in vitro): long neurofilament-positive nerve fibres extend out of the embryonal bodies
- numbers of long neurites extending from embryonal bodies onto white matter ([2]; 10 days in vitro, p<0.0001 vs control): a large number of long neurites extended
- numbers of embryonal bodies attached and sending out neurites on white matter ([2]; 10 days, vs control (p<0.01) and vs P1543 (p<0.01)): significantly higher
- connective tissue scar at the dorsal pole of the spinal cord vs placebo ([3]; adult rats three months after injury, stereomicroscopic images): considerably smaller
- mean motor score (sum of walking scores) ([3]; rats with total spinal cord transection, 12 week follow-up, six animals, ±SEM, placebo 11±2.4, normal animal 120, P 0.0022, preliminary): 78±5.8
